# “And” between values parts separate entries of the source, which are not always exact repeats. Equal values may be shown once.
# Test system: 379773-124-R-J2-PDC spheroid viability
# Experiment: Anticancer human tumor 379773-124-R-J2-PDC patient-derived endometrial carcinoma cell line growth inhibition [POLQ]
# Settings: spheroids with HUVEC and MSC; for viability, T/C: stronger effect = lower value
# Procedure, shortened: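 PDC + HUVEC + MSC complex spheroids; POLQ inhibitors ± partner drugs; top conc. at/near clinical Cmax, else 10 microM (SN-38 1 microM), half-log dilutions; 37 degrees C, 5% CO2.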
# [1] = curve of first compound, second compound 0.0316 µM
# [2] = curve of first compound, second compound 0.1 µM
# [3] = curve of first compound, second compound 0.316 µM
# [4] = curve of first compound, second compound 1 µM
# [5] = curve of first compound, second compound 3.16 µM
# [6] = curve of first compound, second compound 10 µM
# [7] = second compound 0.0316 µM, first compound 0.0316 µM
# [8] = second compound 0.0316 µM, first compound 0.1 µM
# [9] = second compound 0.0316 µM, first compound 0.316 µM
# [10] = second compound 0.0316 µM, first compound 1 µM
# [11] = second compound 0.1 µM, first compound 0.0316 µM
# [12] = second compound 0.1 µM, first compound 0.1 µM
# [13] = second compound 0.1 µM, first compound 0.316 µM
# [14] = second compound 0.1 µM, first compound 1 µM
# [15] = second compound 0.316 µM, first compound 0.0316 µM
# [16] = second compound 0.316 µM, first compound 0.1 µM
# [17] = second compound 0.316 µM, first compound 0.316 µM
# [18] = second compound 0.316 µM, first compound 1 µM
# [19] = second compound 1 µM, first compound 0.0316 µM
# [20] = second compound 1 µM, first compound 0.1 µM
# [21] = second compound 1 µM, first compound 0.316 µM
# [22] = second compound 1 µM, first compound 1 µM
# [23] = second compound 3.16 µM, first compound 0.0316 µM
# [24] = second compound 3.16 µM, first compound 0.1 µM
# [25] = second compound 3.16 µM, first compound 0.316 µM
# [26] = second compound 3.16 µM, first compound 1 µM
# [27] = second compound 10 µM, first compound 0.0316 µM
# [28] = second compound 10 µM, first compound 0.1 µM
# [29] = second compound 10 µM, first compound 0.316 µM
# [30] = second compound 10 µM, first compound 1 µM
# 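Also: spheroids exposed to drugs for seven days before readout.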
# 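For viability, T/C in this document: percent viability relative to DMSO vehicle control taken as 100%.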
structure (smiles),measurement,setting,value
C=CCn1c(=O)c2cnc(Nc3ccc(N4CCN(C)CC4)cc3)nc2n1-c1cccc(C(C)(C)O)n1 + Nc1ccc(C#CCN(C(=O)Cc2ncc(C(F)(F)F)cc2C(F)(F)F)c2ccc(F)cc2)nn1,IC50,[1],0.447 µM
same,IC50,[2],0.488 µM
same,IC50,[3],0.436 µM
same,IC50,[4],0.447 µM
same,IC50,[5],0.499 µM
same,IC50,[6],0.451 µM
same,"viability, T/C","second compound 0.0316 µM, first compound 0.00316 µM",90.6%
same,"viability, T/C","second compound 0.0316 µM, first compound 0.01 µM",101%
same,"viability, T/C",[7],93.7%
same,"viability, T/C",[8],104%
same,"viability, T/C",[9],70.3%
same,"viability, T/C",[10],2.92%
same,"viability, T/C","second compound 0.1 µM, first compound 0.00316 µM",95.5%
same,"viability, T/C","second compound 0.1 µM, first compound 0.01 µM",99.2%
same,"viability, T/C",[11],107%
same,"viability, T/C",[12],111%
same,"viability, T/C",[13],78.1%
same,"viability, T/C",[14],3.57%
same,"viability, T/C","second compound 0.316 µM, first compound 0.00316 µM",95.7%
same,"viability, T/C","second compound 0.316 µM, first compound 0.01 µM",91.7%
same,"viability, T/C",[15],97%
same,"viability, T/C",[16],92.4%
same,"viability, T/C",[17],68.1%
same,"viability, T/C",[18],3.12%
same,"viability, T/C","second compound 1 µM, first compound 0.00316 µM",103%
same,"viability, T/C","second compound 1 µM, first compound 0.01 µM",103%
same,"viability, T/C",[19],100%
same,"viability, T/C",[20],97.5%
same,"viability, T/C",[21],69.8%
same,"viability, T/C",[22],3.73%
same,"viability, T/C","second compound 3.16 µM, first compound 0.00316 µM",113%
same,"viability, T/C","second compound 3.16 µM, first compound 0.01 µM",99.3%
same,"viability, T/C",[23],96.1%
same,"viability, T/C",[24],105%
same,"viability, T/C",[25],80.9%
same,"viability, T/C",[26],3.02%
same,"viability, T/C","second compound 10 µM, first compound 0.00316 µM",101%
same,"viability, T/C","second compound 10 µM, first compound 0.01 µM",88.8%
same,"viability, T/C",[27],92.3%
same,"viability, T/C",[28],88.6%
same,"viability, T/C",[29],71.4%
same,"viability, T/C",[30],2.81%
COc1ccc([C@@H](O)c2cc(-c3ncnc4cc(N5CCOCC5)ccc34)c(F)cc2Cl)nn1 + Cc1cccc(N(C)C(=O)C2C(O)CCN2c2nc(C)cc(C(F)(F)F)c2C#N)c1,IC50,[1],6.33 µM
same,IC50,[2],5.88 µM
same,IC50,[3],7 µM
same,IC50,[4],6.79 µM
same,IC50,[5],6.78 µM
same,IC50,[6],6.19 µM
same,"viability, T/C",[7],81.3%
same,"viability, T/C",[8],83.6%
same,"viability, T/C",[9],94.3%
same,"viability, T/C",[10],96.3%
same,"viability, T/C","second compound 0.0316 µM, first compound 3.16 µM",75%
same,"viability, T/C","second compound 0.0316 µM, first compound 10 µM",33.5%
same,"viability, T/C",[11],87%
same,"viability, T/C",[12],89.6%
same,"viability, T/C",[13],92%
same,"viability, T/C",[14],87.1%
same,"viability, T/C","second compound 0.1 µM, first compound 3.16 µM",64.1%
same,"viability, T/C","second compound 0.1 µM, first compound 10 µM",37.9%
same,"viability, T/C",[15],81.5%
same,"viability, T/C",[16],82.1%
same,"viability, T/C",[17],101%
same,"viability, T/C",[18],82.4%
same,"viability, T/C","second compound 0.316 µM, first compound 3.16 µM",73%
same,"viability, T/C","second compound 0.316 µM, first compound 10 µM",39.8%
same,"viability, T/C",[19],97.2%
same,"viability, T/C",[20],85.4%
same,"viability, T/C",[21],92%
same,"viability, T/C",[22],81.8%
same,"viability, T/C","second compound 1 µM, first compound 3.16 µM",83.8%
same,"viability, T/C","second compound 1 µM, first compound 10 µM",33.4%
same,"viability, T/C",[23],87.3%
same,"viability, T/C",[24],85.5%
same,"viability, T/C",[25],96.7%
same,"viability, T/C",[26],74.8%
same,"viability, T/C","second compound 3.16 µM, first compound 3.16 µM",81.6%
same,"viability, T/C","second compound 3.16 µM, first compound 10 µM",35%
same,"viability, T/C",[27],74.8%
same,"viability, T/C",[28],78.5%
same,"viability, T/C",[29],85.2%
same,"viability, T/C",[30],80%
same,"viability, T/C","second compound 10 µM, first compound 3.16 µM",82.2%
same,"viability, T/C","second compound 10 µM, first compound 10 µM",28.4%
C=CC(=O)N1CCN(c2nc(=O)n(-c3c(C)ccnc3C(C)C)c3nc(-c4c(O)cccc4F)c(F)cc23)C(C)C1 (stereo unspecified),"viability, T/C",compound 0.0316 µM,97.8% and 95.1% and 86.4%
same,"viability, T/C",compound 0.1 µM,86.7% and 106% and 91.7%
same,"viability, T/C",compound 0.316 µM,70% and 103% and 89.9%
same,"viability, T/C",compound 1 µM,86.1% and 93.1% and 87.7%
same,"viability, T/C",compound 3.16 µM,88.5% and 95.5% and 97.6%
same,"viability, T/C",compound 10 µM,78.4% and 95.8% and 85.6%
same,IC50,curve of compound,> 10 µM
